This experiment has as its target Tryptophan--tRNA ligase (Mycobacterium tuberculosis (strain ATCC 25618 / H37Rv), UniProt P9WFT3). In words: Biochemical assay for Mt-TrpRS. It counts as functional.
Tryptophan--tRNA ligase, sequence (P9WFT3 whole entry): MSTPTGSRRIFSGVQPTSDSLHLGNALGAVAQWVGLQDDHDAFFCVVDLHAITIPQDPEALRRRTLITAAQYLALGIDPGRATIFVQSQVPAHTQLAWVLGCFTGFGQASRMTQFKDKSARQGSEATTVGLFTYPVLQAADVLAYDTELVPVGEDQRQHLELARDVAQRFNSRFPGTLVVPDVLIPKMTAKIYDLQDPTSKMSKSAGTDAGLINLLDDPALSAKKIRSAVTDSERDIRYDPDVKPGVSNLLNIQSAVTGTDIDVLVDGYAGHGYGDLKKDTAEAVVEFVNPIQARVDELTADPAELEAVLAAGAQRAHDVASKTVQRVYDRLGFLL
Regarding `Nc1nc2c(c(NC3CCCC3)n1)CCN(C(=O)C1CCOC1)CC2` (stereo not given), the IC50 was over 195 µM.
The result for `CCOCC(O)CNc1cncc(Br)c1` (stereo not given) reads over 195 µM.
Molecule `O[C@H]1CN(Cc2cccc(C(F)(F)F)c2)CC[C@@]12CCCO2` had an IC50 of over 195 µM.
As to `CC(=O)N1CCCC(c2ccnc(N(C)C)n2)C1` (stereo not given), the IC50 is over 195 µM.
The result for `CC(C)C(NC(=O)C1CCCC1)c1cc(O)nc(-c2cccnc2)n1` (stereo not given) reads over 195 µM.
The result for `CCCC(=O)N1CCCCC1c1nccc(C)n1` (stereo not given) reads over 195 µM.
The result for `Cc1csc(Nc2nccnc2C2CCCN2CC(N)=O)n1` (stereo not given) reads over 195 µM.
As for `OCc1nnc2n1CCN(c1cnccn1)C2`, the IC50 was over 195 µM.
`CCN(CC1CCOC1)C(=O)c1cc(F)ccc1N1CCN(C)CC1` (stereo not given) had an IC50 of over 195 µM.
The result for `COc1ccc([C@@H]2CN(C(=O)CCn3cccn3)C[C@H]2NC(C)=O)cc1` reads over 195 µM; that for `CC(C)CC(=O)N1CC(=O)N(Cc2ccco2)CC(O)C1` (stereo not given), over 195 µM.
Consider `CC1CN(Cc2ccccc2)CCCN1CCS(C)(=O)=O` (stereo not given), for which the IC50 was over 195 µM.
The result for `COc1ccccc1C(=O)N1CC(=O)N(CC2CC2)CC(O)C1` (stereo not given) reads over 195 µM; that for `COCC1CC2(CCN(Cc3nccs3)CC2)CN1Cc1ccccn1` (stereo not given), over 195 µM; that for `CCc1ncnc2c1CCN(CCOC)CC2`, over 195 µM.
The result for `Cc1cc(C(F)(F)F)nn1CCCNC(=O)C1CCCO1` (stereo not given) reads over 195 µM; that for `Nc1nccnc1C1CN(Cc2ccc(OCC(=O)O)cc2)CCO1` (stereo not given), over 195 µM; that for `O=C(Cc1cccc(O)c1)N1CCCC(O)(CN2CCCC2)CC1` (stereo not given), over 195 µM.
The result for `Cc1ccc(CNc2nc(O)cc(C3CC(=O)N(C)C3)n2)cc1` (stereo not given) reads over 195 µM; that for `Cc1nnc2n1CCN(Cc1csc(-c3ncccn3)n1)C2`, over 195 µM.
Turning to `CSc1ccccc1C(=O)NCc1cc2n(n1)CCCN(CC(C)C)C2`, the IC50 was over 195 µM.
The result for `COc1cccc(OC)c1CN1CC(O)CN(S(C)(=O)=O)CC1=O` (stereo not given) reads over 195 µM; that for `Cc1ncsc1CN1CCN(C2CCOCC2)CC(C(N)=O)C1` (stereo not given), over 195 µM; that for `Cc1ccc(S(=O)(=O)Nc2ccc(=O)n(C)c2)c(Br)c1`, over 195 µM.
The result for `COc1ccc(-c2cc(N)on2)cc1` reads over 195 µM; that for `CCO[C@H]1CN(CC2CCOCC2)[C@@H]2CCCO[C@H]12`, over 195 µM; that for `NC(=O)CN1CCOCC(Cc2ccccc2Cl)C1` (stereo not given), over 195 µM.
The result for `c1ccc(CO[C@@H]2CN(Cc3ccoc3)[C@@H]3COC[C@@H]32)nc1` reads over 195 µM; that for `NC(=O)CN1CCCC(Cc2ccc(N3CCOCC3)nn2)C1` (stereo not given), over 195 µM; that for `CN(C)c1ccc(CC2COCCN(Cc3nccn3C)C2)nn1` (stereo not given), over 195 µM.
`CN1CCCN(C(=O)c2ccnn2-c2ccc3ccccn23)CC1` had a 50% inhibitory concentration (IC50) of over 195 µM.
As for `O=C(NCC1CC2(CO1)CN(Cc1cccs1)C2)C1CCC1` (stereo not given), the IC50 was over 195 µM.
The result for `CC(C)(C)OC(=O)N1CC(=O)N(CCc2ccccc2)CC(O)C1` (stereo not given) reads over 195 µM.
The result for `COCC(=O)N1CCO[C@]2(CCC[C@H]2COC)C1` reads over 195 µM; that for `O[C@@]1(c2ccccn2)CC[C@H]2CN(Cc3ccccn3)C[C@H]21`, over 195 µM; that for `CNC(=O)c1nc(CN2CCOC(C(F)(F)F)C2)no1` (stereo not given), over 195 µM.
The result for `CN(C)[C@@H]1CN(C(=O)Cc2ccc(F)cc2)[C@@H]2CCCO[C@H]12` reads over 195 µM; that for `Nc1c(N2CCCC2)ncnc1N1CCOCC1`, over 195 µM.
As for `Cn1cc(CN2CC[C@H](O)[C@@H](n3ccc(=O)[nH]c3=O)CC2)cn1`, the half-maximal inhibitory concentration (IC50) is over 195 µM.
In turn, `Cc1cnn(CCCNC2Cc3ccccc3C2)c1` showed an IC50 of over 195 µM.
The result for `NC(=O)C1(CCCc2ccccn2)CCCN(Cc2ncc[nH]2)C1` (stereo not given) reads over 195 µM; that for `Fc1cccc(CN2C[C@@H]3CN(c4ncccn4)C[C@@H]3C2)c1`, over 195 µM; that for `COc1ccccc1NC(=O)NCc1cn[nH]c1`, over 195 µM.
With `c1ccc(N2CCOC(Cc3cccnc3)C2)cc1` (stereo not given), the IC50 is over 195 µM.
Regarding `OC1CCCN(Cc2ccnc(-c3cccnc3)n2)C1` (stereo not given), the IC50 is over 195 µM.
The result for `O=C(c1ccco1)N1C(CO)[C@]2(O)CC[C@H]1CC2` (stereo not given in full) reads over 195 µM; that for `CN1CCC(c2cccc(Cc3ccccc3)n2)CC1`, over 195 µM; that for `COCCN1CCc2ncnc(NC3CC3)c2CC1`, over 195 µM.
The result for `COc1cccc(-c2ccnc(C3CCNCC3)c2)c1` reads over 195 µM; that for `CCn1cc(C(=O)N2CCCC(c3nccs3)C2)cn1` (stereo not given), over 195 µM; that for `O=C(c1ccccn1)N1CCC(c2nc(O)cc(-c3ccncc3)n2)C1` (stereo not given), over 195 µM.
In the case of `Cc1nc(CN2CCC3(C2)CN(Cc2ccco2)C3)cs1`, the IC50 was over 195 µM.
The result for `CNC(=O)C1(CCCc2ccncc2)CCCCN1` (stereo not given) reads over 195 µM; that for `Cc1cccc(C2CCCN2S(=O)(=O)N(C)C)n1` (stereo not given), over 195 µM.
The result for `O=C(CCC1CCCC1)N1CCCC(c2ncc3c(n2)CCNC3)C1` (stereo not given) reads over 195 µM; that for `CC(C)(C)C(=O)CN1Cc2ccccc2NCCC1=O`, over 195 µM; that for `Cn1cnc(S(=O)(=O)N2CC3(CCN(c4ccccc4)C3)C2)c1`, over 195 µM.
`Cc1nc(C2CCCN2C(=O)COc2ccccc2)ncc1C(N)=O` (stereo not given) gave an IC50 of over 195 µM.
The result for `NC(=O)CN1CCC(c2noc3cc(F)ccc23)CC1` reads over 195 µM; that for `COCCN1C(=O)CC[C@@H]2[C@H]1CCN2S(=O)(=O)c1cccs1`, over 195 µM; that for `COc1ccc(CN2CC[C@H](NC(C)=O)[C@@H](O)CC2)c(F)c1`, over 195 µM.
The result for `Cc1nccc(N2CCCC2CCNS(C)(=O)=O)n1` (stereo not given) reads over 195 µM; that for `O=C1CCCN1CCCC(=O)N1CCCC(Cc2cccnc2)C1` (stereo not given), over 195 µM.
As to `Cc1ccc2cc(CNCCN3CCCC3)c(=O)[nH]c2c1`, the IC50 was over 195 µM.
The result for `NC(=O)Nc1cc(F)ccc1SCC(F)F` reads over 195 µM.
The result for `Cc1cnc(N)c(C(=O)C2CCN(C(=O)C3CCC3)CC2)c1` reads over 195 µM; that for `COc1cc(CNc2cnn(CC(F)F)c2)ccc1O`, over 195 µM.
The result for `Cc1sc2c(C3CCCN(C)C3)nc(C)n2c1C` (stereo not given) reads over 195 µM; that for `O=C(COC[C@]12COC[C@H]1CN(C1CCC1)C2)N1CCCC1`, over 195 µM.
`C[C@H](N)Cn1nc(-c2cccs2)oc1=O` gave an IC50 of over 195 µM.
Take `COCCn1c2c(ccc1=O)CC(NCc1cnn(C)c1)CC2` (stereo not given): the IC50 was over 195 µM.
The molecule `Cn1ccc(C(=O)N2CCOC(c3ccccn3)C2)cc1=O` (stereo not given) had an IC50 of over 195 µM.
Molecule `CNC(=O)CCc1cc(C)nc(C2CCCCN2)n1` (stereo not given) showed an IC50 of over 195 µM.
In turn, `COC1CN(C(=O)CC2CCCC2)CCC(=O)N(C)c2ccccc21` (stereo not given) showed a 50% inhibitory concentration (IC50) of over 195 µM.
The result for `NC(=O)C1CCN(C(=O)c2ccn(-c3ccc(F)cc3)n2)CC1` reads over 195 µM.
The result for `Cc1ccccc1-c1cncc(C2CCN(CCO)CC2)n1` reads over 195 µM; that for `CNC(=O)c1cc(C2CCCNC2)n[nH]1` (stereo not given), over 195 µM.
The result for `CCCNc1ccc(C(=O)NCCc2cccc(OC)c2)cn1` reads over 195 µM; that for `CNc1cncc(C2CCCN2Cc2cccc(C)n2)n1` (stereo not given), over 195 µM.
Turning to `COc1ccc(C2Nc3cc(Cl)ccc3C3=NCCN32)cc1O` (stereo not given), the IC50 is over 195 µM.
The result for `C=Cn1ncc(CN2CCC(c3ncc(Cl)cc3S(C)(=O)=O)CC2)c1C` reads over 195 µM; that for `CN(CC(=O)Nc1cccnc1)C1CCCN(c2cccnn2)C1` (stereo not given), over 195 µM.
The result for `COc1c(CNC2CCCN(c3ncccn3)C2)c(C(C)C)nn1C` (stereo not given) reads over 195 µM; that for `Cc1ccc(CN2C[C@H](NC(=O)c3nccn3C)[C@H]3OCCC[C@H]32)o1`, over 195 µM; that for `Cc1ccc(C(=O)NS(=O)(=O)c2cc(Br)ccc2C)c(=O)[nH]1`, over 195 µM.
The result for `CC(C)N(C)Cc1cncc2c1CCN(Cc1ccoc1)C2` reads over 195 µM; that for `CC(C)N1CCCC2(CCN(Cc3noc(C4CCCC4)n3)C2)C1=O` (stereo not given), over 195 µM.
Consider `CCn1ncc2c1C(COC)N(C(=O)c1cscn1)CC2` (stereo not given), for which the IC50 is over 195 µM.
The result for `Cn1cc(C(=O)NCc2cncc3c2CCNC3)cn1` reads over 195 µM; that for `CC1CN(Cc2ccccc2)CCCN1CCNS(C)(=O)=O` (stereo not given), over 195 µM.
The molecule `N#Cc1cccc(CN2CC[C@@H]3CN(c4ncccn4)CCO[C@@H]3C2)c1` had an IC50 of over 195 µM.
The result for `CNCC(=O)N1CCCCC1c1nccc(C)n1` (stereo not given) reads over 195 µM; that for `CCCC(O)CN1CC(C)(C)CN(C(=O)CCc2ccccc2)CC1=O` (stereo not given), over 195 µM; that for `Cc1cc(NC(=O)CN2CCc3cncnc3C2)no1`, over 195 µM.
The result for `CCOC(=O)CNC(=O)C1OC(c2ccccc2)=NN1C(C)=O` (stereo not given) reads over 195 µM.
On to `CCn1cc(CN2CCC(c3[nH]ncc3S(C)(=O)=O)C2)cn1` (stereo not given), for which the IC50 is over 195 µM.
The result for `Cn1cc(-c2cc(C(F)(F)F)n(CCCN)n2)cn1` reads over 195 µM.
`COc1ccc2c(c1)CN(Cc1ccco1)C(=O)CCN2` had an IC50 of over 195 µM.
The result for `Cc1ccc(N2CCc3ncnc(C)c3CC2)nn1` reads over 195 µM.
The result for `CC(C)NC(=O)c1nc2c(s1)CCCN2C(C)C` reads over 195 µM.
For `O=C(c1cnco1)N1C[C@@H](O)[C@H](Oc2cccc(F)c2)C1`, the IC50 is over 195 µM.
With `CC(=O)N1CCCC(c2cccc(-n3ccnc3)n2)C1` (stereo not given), the IC50 was over 195 µM.
Molecule `CCC(CC#N)n1ccc(C(F)(F)F)n1` (stereo not given) gave an IC50 of over 195 µM.
The molecule `O=C1CN(C(=O)c2cccc(C(F)(F)F)c2)CC(O)CN1CC1CC1` (stereo not given) had an IC50 of over 195 µM.
On to `Cc1cnn(CC2CCCN2Cc2nnc(C(C)C)o2)c1` (stereo not given), for which the IC50 was over 195 µM.
The result for `CCCC(=O)N1CCCC(c2ccccn2)C1` (stereo not given) reads over 195 µM; that for `CCN(C(=O)c1nc2c(s1)CCCN2C)C(C)C`, over 195 µM; that for `c1cn(-c2cncc(C3CCNCC3)n2)cn1`, over 195 µM.
The molecule `O=C(NCCCn1ccnc1)c1cccnc1OCC(F)(F)F` showed an IC50 of over 195 µM.
Molecule `O=C([C@@H]1C[C@@H]2CCN(Cc3ccoc3)C[C@H]2O1)N1CCCC1` had an IC50 of over 195 µM.

As usually defined, the IC50 is the concentration that inhibits the measured activity by half.

(Values after ChEMBL document CHEMBL3988442, “University of Dundee, Small-Polar-MMV Screening Library” (2021).)
